Tests used:
[1] = tested on: E. coli ATCC 25922 (SEN) and E. coli NCTC13846 (MDR); test: Adaptive laboratory evolution (ALE), relative MIC of evolved lines; assay type: cell-based, Escherichia coli; conditions: for Relative MIC (log10): EC-SEN (Escherichia coli ATCC 25922)
From the text: (§1) Using the same set of bacterial strains, we initiated adaptive laboratory evolution with the aim to maximize the level of antibiotic resistance in the populations achieved during a longer, but fixed time period.
(§2) An established protocol for adaptive laboratory evolution[46],[73] was followed to propagate populations with the highest resistance levels. Starting with an antibiotic concentration that caused approximately 50% growth inhibition, ten parallel populations for each antibiotic-ancestor strain combination were grown for 72 hours at 37 °C with continuous shaking (300 RPM). MHB broth medium was used unless stated otherwise. After each incubation, 20 µl of each culture was transferred to four new wells containing fresh medium with increasing antibiotic concentrations (0.5×, 1×, 1.5×, and 2.5× the previous concentration) in a chessboard layout to monitor potential cross-contamination. Growth was monitored by measuring OD600 using a Biotek Synergy 2 microplate reader, and only populations grown in the highest drug concentration with an OD600 > 0.2 were transferred further.
(§3) A robotic liquid handling system was used to automatically prepare a 11 to 16-step serial dilution in 384-well microtiter plates (Greiner). A final concentration of 5 × 10^5 bacterial cells per mL were inoculated into each well containing 60 µL MHB medium. Bacterial cultures were incubated at 37 °C with continuous shaking (Infors shaker, 900 rpm with 3 mm throw) for 18 hours (2 replicates from each). Cell growth was monitored by measuring the optical density (OD600 values, using Biotek Synergy microplate reader). MIC was defined as the antibiotic concentration of complete growth inhibition (i.e., OD600 < 0.05). Relative MIC was calculated as follows:1 relativeMIC=MICevolved/MICancestor […]
(§4) Supplementary Figure 4. Resistance levels following adaptive laboratory evolution across bacterial strains. The level of resistance was measured as the fold change in relative MIC between evolved and ancestral strains after ~60 days of adaptive laboratory evolution. Data are grouped by bacterial strain (A. baumannii (AB), E. coli (EC), K. pneumoniae (KP), and P. aeruginosa (PA)) and categorized as either multidrug-resistant (MDR) or sensitive (SEN). Each data point represents a laboratory evolved line, and boxplots show the median, first and third quartiles, with whiskers indicating the 5th and 95th percentiles.
(§5) Statistical analysis was performed using two-sided Dunn’s post-hoc test with Benjamini-Hochberg correction for multiple comparisons (****/ ***/ **/ * indicates p < 0.0001/ 0.001/ 0.01/ 0.05). For detailed information on antibiotic and bacterial species, see Supplementary Table 1. For mode of action groups, refer to Table 1. Source data are provided as a Source Data file.
(1 picture or pasted object on this page, not shown here)

[2] = tested on: K. pneumoniae ATCC 10031 (SEN) and K. pneumoniae ATCC 700603 (MDR); test: as above; assay type: cell-based, Klebsiella pneumoniae
From the text: as §1, §2, §3, §4, §5

Nc1nc(-n2cc(C(=O)O)c(=O)c3cc(F)c(N4CC(O)C4)c(Cl)c32)c(F)cc1F [Delafloxacin]
32: Relative MIC ([2]; KP-MDR (ATCC 700603), evolved line 4, MIC of evolved line / MIC of ancestor) | Relative MIC ([2]; KP-MDR (ATCC 700603), evolved line 5, MIC of evolved line / MIC of ancestor) | Relative MIC ([2]; Klebsiella pneumoniae ATCC 700603 (KP-MDR), evolved line 4) | Relative MIC ([2]; Klebsiella pneumoniae ATCC 700603 (KP-MDR), evolved line 5)
3.913: Relative MIC (log10) ([2]; KP-SEN (Klebsiella pneumoniae ATCC 10031), evolved line 7 adapted to the named antibiotic)
16: Relative MIC ([2]; KP-MDR (ATCC 700603), evolved line 3, MIC of evolved line / MIC of ancestor) | Relative MIC ([2]; Klebsiella pneumoniae ATCC 700603 (KP-MDR), evolved line 3)
8192: Relative MIC ([2]; KP-SEN (ATCC 10031), evolved line 2, MIC of evolved line / MIC of ancestor) | Relative MIC ([2]; KP-SEN (ATCC 10031), evolved line 4, MIC of evolved line / MIC of ancestor) | Relative MIC ([2]; KP-SEN (ATCC 10031), evolved line 7, MIC of evolved line / MIC of ancestor) | Relative MIC ([2]; Klebsiella pneumoniae ATCC 10031 (KP-SEN), evolved line 2) | Relative MIC ([2]; Klebsiella pneumoniae ATCC 10031 (KP-SEN), evolved line 4) | Relative MIC ([2]; Klebsiella pneumoniae ATCC 10031 (KP-SEN), evolved line 7)
16384: Relative MIC ([2]; KP-SEN (ATCC 10031), evolved line 1, MIC of evolved line / MIC of ancestor) | Relative MIC ([2]; KP-SEN (ATCC 10031), evolved line 3, MIC of evolved line / MIC of ancestor) | Relative MIC ([2]; KP-SEN (ATCC 10031), evolved line 5, MIC of evolved line / MIC of ancestor) | Relative MIC ([2]; KP-SEN (ATCC 10031), evolved line 6, MIC of evolved line / MIC of ancestor) | Relative MIC ([2]; Klebsiella pneumoniae ATCC 10031 (KP-SEN), evolved line 1) | Relative MIC ([2]; Klebsiella pneumoniae ATCC 10031 (KP-SEN), evolved line 3) | Relative MIC ([2]; Klebsiella pneumoniae ATCC 10031 (KP-SEN), evolved line 5) | Relative MIC ([2]; Klebsiella pneumoniae ATCC 10031 (KP-SEN), evolved line 6)
1024: Relative MIC ([1]; EC-SEN (ATCC 25922), evolved line 2, MIC of evolved line / MIC of ancestor) | Relative MIC ([1]; EC-SEN (ATCC 25922), evolved line 6, MIC of evolved line / MIC of ancestor) | Relative MIC ([1]; Escherichia coli ATCC 25922 (EC-SEN), evolved line 2) | Relative MIC ([1]; Escherichia coli ATCC 25922 (EC-SEN), evolved line 6)
2.709: Relative MIC (log10) ([1]; evolved line 10 adapted to the named antibiotic)
3.311: Relative MIC (log10) ([1]; evolved line 7 adapted to the named antibiotic) | Relative MIC (log10) ([1]; evolved line 9 adapted to the named antibiotic)
4.214: Relative MIC (log10) ([2]; KP-SEN (Klebsiella pneumoniae ATCC 10031), evolved line 1 adapted to the named antibiotic) | Relative MIC (log10) ([2]; KP-SEN (Klebsiella pneumoniae ATCC 10031), evolved line 3 adapted to the named antibiotic)
64: Relative MIC ([2]; KP-MDR (ATCC 700603), evolved line 2, MIC of evolved line / MIC of ancestor) | Relative MIC ([2]; KP-MDR (ATCC 700603), evolved line 8, MIC of evolved line / MIC of ancestor) | Relative MIC ([2]; KP-MDR (ATCC 700603), evolved line 9, MIC of evolved line / MIC of ancestor) | Relative MIC ([2]; KP-MDR (ATCC 700603), evolved line 10, MIC of evolved line / MIC of ancestor) | Relative MIC ([2]; Klebsiella pneumoniae ATCC 700603 (KP-MDR), evolved line 2) | Relative MIC ([2]; Klebsiella pneumoniae ATCC 700603 (KP-MDR), evolved line 8) | Relative MIC ([2]; Klebsiella pneumoniae ATCC 700603 (KP-MDR), evolved line 9) | Relative MIC ([2]; Klebsiella pneumoniae ATCC 700603 (KP-MDR), evolved line 10)
1.806: Relative MIC (log10) ([2]; KP-MDR (Klebsiella pneumoniae ATCC 700603), evolved line 2 adapted to the named antibiotic) | Relative MIC (log10) ([2]; KP-MDR (Klebsiella pneumoniae ATCC 700603), evolved line 8 adapted to the named antibiotic) | Relative MIC (log10) ([2]; KP-MDR (Klebsiella pneumoniae ATCC 700603), evolved line 10 adapted to the named antibiotic)
512: Relative MIC ([1]; EC-SEN (ATCC 25922), evolved line 3, MIC of evolved line / MIC of ancestor) | Relative MIC ([1]; EC-SEN (ATCC 25922), evolved line 4, MIC of evolved line / MIC of ancestor) | Relative MIC ([1]; EC-SEN (ATCC 25922), evolved line 10, MIC of evolved line / MIC of ancestor) | Relative MIC ([1]; Escherichia coli ATCC 25922 (EC-SEN), evolved line 3) | Relative MIC ([1]; Escherichia coli ATCC 25922 (EC-SEN), evolved line 4) | Relative MIC ([1]; Escherichia coli ATCC 25922 (EC-SEN), evolved line 10)
65536: Relative MIC ([2]; KP-SEN (ATCC 10031), evolved line 8, MIC of evolved line / MIC of ancestor) | Relative MIC ([2]; KP-SEN (ATCC 10031), evolved line 9, MIC of evolved line / MIC of ancestor) | Relative MIC ([2]; Klebsiella pneumoniae ATCC 10031 (KP-SEN), evolved line 8) | Relative MIC ([2]; Klebsiella pneumoniae ATCC 10031 (KP-SEN), evolved line 9)
4.816: Relative MIC (log10) ([2]; KP-SEN (Klebsiella pneumoniae ATCC 10031), evolved line 8 adapted to the named antibiotic) | Relative MIC (log10) ([2]; KP-SEN (Klebsiella pneumoniae ATCC 10031), evolved line 9 adapted to the named antibiotic)
2.107: Relative MIC (log10) ([2]; KP-MDR (Klebsiella pneumoniae ATCC 700603), evolved line 6 adapted to the named antibiotic) | Relative MIC (log10) ([2]; KP-MDR (Klebsiella pneumoniae ATCC 700603), evolved line 7 adapted to the named antibiotic)
256: Relative MIC ([1]; EC-SEN (ATCC 25922), evolved line 8, MIC of evolved line / MIC of ancestor) | Relative MIC ([1]; Escherichia coli ATCC 25922 (EC-SEN), evolved line 8)
128: Relative MIC ([1]; EC-SEN (ATCC 25922), evolved line 1, MIC of evolved line / MIC of ancestor) | Relative MIC ([1]; EC-SEN (ATCC 25922), evolved line 5, MIC of evolved line / MIC of ancestor) | Relative MIC ([1]; Escherichia coli ATCC 25922 (EC-SEN), evolved line 1) | Relative MIC ([1]; Escherichia coli ATCC 25922 (EC-SEN), evolved line 5) | Relative MIC ([2]; KP-MDR (ATCC 700603), evolved line 6, MIC of evolved line / MIC of ancestor) | Relative MIC ([2]; KP-MDR (ATCC 700603), evolved line 7, MIC of evolved line / MIC of ancestor) | Relative MIC ([2]; Klebsiella pneumoniae ATCC 700603 (KP-MDR), evolved line 6) | Relative MIC ([2]; Klebsiella pneumoniae ATCC 700603 (KP-MDR), evolved line 7)
3.0103: Relative MIC (log10) ([1]; evolved line 2 adapted to the named antibiotic) | Relative MIC (log10) ([1]; evolved line 6 adapted to the named antibiotic)
2048: Relative MIC ([1]; EC-SEN (ATCC 25922), evolved line 7, MIC of evolved line / MIC of ancestor) | Relative MIC ([1]; EC-SEN (ATCC 25922), evolved line 9, MIC of evolved line / MIC of ancestor) | Relative MIC ([1]; Escherichia coli ATCC 25922 (EC-SEN), evolved line 7) | Relative MIC ([1]; Escherichia coli ATCC 25922 (EC-SEN), evolved line 9)
